Laboratory results from article PMC12113356, “Novel Anti-MRSA Peptide from Mangrove-Derived Virgibacillus chiguensis FN33 Supported by Genomics and Molecular Dynamics” (Marine Drugs, 2025).
Converted amounts (≈) assume the structure as drawn. Peptide text beside a SMILES is read from it.

What was measured:
[1] = DPPH radical-scavenging assay; conditions: 0.1 mM DPPH, 25 °C, 30 min in darkness, absorbance 517 nm; mean ± SD, n = 3
Procedure: A 200 μL sample or ascorbic acid (Gammaco Ltd., Bangkok, Thailand) was added to 2 mL of 0.1 mM DPPH solution (Merck Ltd., Bangkok, Thailand) and incubated at 25 °C in darkness for 30 min. The DPPH color change from purple to pale yellow was observed, and the absorbance at 517 nm was measured using a UV–visible spectrophotometer.

MRSA strain 2468 [2] = test: Compatibility with surfactants (activity retention by agar well diffusion); format: physicochemical, Staphylococcus aureus; conditions: 32 µg/mL, agar well diffusion read-out, % of untreated sample, mean ± SD, n = 3
Procedure: (§1) The AMP solution was prepared in sterile purified water and adjusted to a final concentration of 32 µg/mL. To determine thermal stability, the AMP was exposed to temperatures of 30, 40, 60, 80, and 100 °C, as well as to autoclaving at 121 °C and 15 psi for 15 and 30 min. The susceptibility of the AMP to enzymatic degradation was examined by treating it with proteinase K, trypsin, and α-chymotrypsin (each at 1 mg/mL, Sigma-Aldrich, Warren, MI, USA), representing different proteolytic mechanisms. The AMP’s compatibility with surfactants was assessed by incubating it with 1% SDS, 1% CTAB, and 1% Triton X-100 (AppliChem GmbH, Darmstadt, Germany). Additionally, the effect of pH variations on AMP integrity was tested by adjusting the solution to pH 1, 4, 8, 10, and 14. The pH was neutralized to the original pH after incubation before conducting antibacterial activity tests. […] Stability data were expressed as residual activity percentages relative to the untreated sample (mean ± SD), and statistical significance was evaluated using two-way ANOVA and Tukey’s post hoc test, with a p-value < 0.05 considered significant.

MRSA strain 2468 [3] = test: Sytox Green uptake assay (membrane permeabilization); format: cell-based, Staphylococcus aureus; conditions: 10 µM Sytox Green, ex 504/em 523 nm, over 24 h
Procedure: (§2) The Sytox Green uptake assay was conducted to assess membrane permeabilization associated with loss of membrane integrity. The fluorescence would be detected from a Sytox Green–DNA complex. […] Triton X-100 (0.125–2%) and an untreated sample were used as positive and negative controls, respectively. Fluorescence intensities were recorded 5 min before sample addition across all groups to ensure cell integrity prior to the experiment. […] For MRSA strain 2468, fluorescence intensity was higher than the positive control at the time of sample addition and remained concentration-dependent.
(§3) The membrane permeabilization of bacterial cells was determined by the increase in fluorescence intensity caused by the Sytox Green–DNA complex. The fluorescence intensity was observed over time for 24 h. The inset graphs show the expanded view of the fluorescence baseline before sample addition and the fluorescence intensity during the initial 60 min after sample addition. The increase in fluorescence intensity over the entire treatment period was expressed as fold changes, comparing different sample concentrations to the untreated condition of S. aureus TISTR 517 (c) and MRSA strain 2468 (d).
(§4) The Sytox Green uptake assay was performed to evaluate the disruption of cell membrane integrity induced by the AMP [67]. An overnight culture (16 h) of MRSA strain 2468 was harvested and washed three times with sterile PBS (pH 7.4) supplemented with 0.2% CAMHB as a diluent. The cell suspension was then diluted with the same diluent until the OD at 625 nm was 0.1 (1 × 10^8 CFU/mL). An aliquot (100 µL) of the diluted cells was added to each well, followed by incubation with 10 µM Sytox Green (Thermo Fisher Scientific Inc., Waltham, MA, USA) in the dark for 15 min. […] Triton X-100 (AppliChem GmbH, Darmstadt, Germany) was used as a positive control and prepared at final concentrations ranging from 0.125% to 2%. These concentrations were used to compare the level of cell membrane permeability induced by the AMP. Membrane permeability was assessed by measuring fluorescence intensity using a microplate reader (Thermo Scientific Inc., Waltham, MA, USA) at excitation and emission wavelengths of 504 nm and 523 nm, respectively, over a 24 h period following AMP addition. Significant differences in fluorescence intensity (p-value < 0.05) were analyzed using two-way ANOVA and Tukey’s post hoc test for multiple comparisons between treated and untreated conditions.

S. aureus TISTR 517 = test: as above; format: cell-based, Staphylococcus aureus; conditions: 10 µM Sytox Green, ex 504/em 523 nm, over 24 h
Procedure: as §2, §3, §4

proteinase K = molecular target: T1, proteinase K (Parengyodontium album, UniProt P06873); test: Stability to protease digestion (activity retention); format: in vitro ADME; conditions: 32 µg/mL, proteinase K 1 mg/mL, agar well diffusion read-out vs MRSA strain 2468, % of untreated sample, mean ± SD, n = 3
T1 construct: purchased Sigma-Aldrich
T1 sequence (P06873 106-384): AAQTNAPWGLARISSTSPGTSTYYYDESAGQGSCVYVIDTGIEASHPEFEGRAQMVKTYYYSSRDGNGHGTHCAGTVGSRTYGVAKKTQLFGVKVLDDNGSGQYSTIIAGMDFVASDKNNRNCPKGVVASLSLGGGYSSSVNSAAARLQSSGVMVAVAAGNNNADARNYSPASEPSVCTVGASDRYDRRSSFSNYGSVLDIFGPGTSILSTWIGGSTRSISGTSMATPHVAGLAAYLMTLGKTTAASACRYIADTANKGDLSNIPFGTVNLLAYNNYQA
Procedure: as §1

α-chymotrypsin = molecular target: T2, α-chymotrypsin (Bos taurus, UniProt P00766); test: as above; format: in vitro ADME; conditions: 32 µg/mL, α-chymotrypsin 1 mg/mL, agar well diffusion read-out vs MRSA strain 2468, % of untreated sample, mean ± SD, n = 3
T2 construct: purchased Sigma-Aldrich
Procedure: as §1

egg albumin = test: Albumin denaturation assay (in vitro anti-inflammatory); format: biochemical, hen; conditions: PBS pH 7.2, 37 °C 15 min then 70 °C 5 min, OD 660 nm, mean ± SD, n = 3
Procedure: The reaction mixture consisted of 25 μL of egg albumin (derived from fresh hen eggs), 350 μL of PBS (pH 7.2, 0.1 M), and 250 μL of AMP or PBS (used as a reference). The mixtures were pre-incubated at 37 °C for 15 min, followed by denaturation at 70 °C for 5 min. After a 5 min cooling period on ice, the optical density (OD) at 660 nm was measured using a spectrophotometer. […] The percentage inhibition of albumin denaturation was calculated using the following equation:Inhibition of albumin denaturation (%) = [1 − (Absorbancesample/Absorbancecontrol)] × 100

CC(C)C[C@H](NC(=O)[C@H](CC(=O)O)NC(=O)[C@H](CS)NC(=O)[C@H](Cc1c[nH]cn1)NC(=O)[C@H](CS)NC(=O)[C@@H]1CCCN1C(=O)[C@@H](NC(=O)[C@H](CC(C)C)NC(=O)[C@H](CS)NC(=O)CNC(=O)[C@H](Cc1c[nH]c2ccccc12)NC(=O)[C@@H](NC(=O)[C@H](CC(=O)O)NC(=O)[C@@H](NC(=O)CNC(=O)[C@H](CS)NC(=O)CNC(=O)CNC(=O)[C@@H](N)CCC(=O)O)C(C)C)[C@@H](C)O)[C@@H](C)O)C(=O)N[C@@H](Cc1ccccc1)C(=O)N[C@@H](CS)C(=O)N[C@H](C(=O)N[C@H](C(=O)O)[C@@H](C)O)[C@@H](C)O [FN33 AMP] (H-EGGCGVDTWGCLTPCHCDLFCTT-OH)
IC50 (DPPH radical scavenging) [1]: 11.66 ± 2.87 µg/mL (≈ 4.82 µM)
Antibacterial Activity Retention of FN33 AMP (%) Against MRSA Strain 2468 (MRSA strain 2468 [2]; with CTAB 1% w/v, 1 h): 93.19 ± 0.52 %
Antibacterial Activity Retention of FN33 AMP (%) Against MRSA Strain 2468 (MRSA strain 2468 [2]; with CTAB 1% w/v, 6 h): 93.17 ± 0.48 %
Antibacterial Activity Retention of FN33 AMP (%) Against MRSA Strain 2468 (MRSA strain 2468 [2]; with CTAB 1% w/v, 12 h): 92.51 ± 0.69 *^,† %
Antibacterial Activity Retention of FN33 AMP (%) Against MRSA Strain 2468 (MRSA strain 2468 [2]; with SDS 1% w/v, 1 h): 117.08 ± 0.78 %
Antibacterial Activity Retention of FN33 AMP (%) Against MRSA Strain 2468 (MRSA strain 2468 [2]; with SDS 1% w/v, 6 h): 117.39 ± 0.96 %
Antibacterial Activity Retention of FN33 AMP (%) Against MRSA Strain 2468 (MRSA strain 2468 [2]; with SDS 1% w/v, 12 h): 115.95 ± 0.57 %
Antibacterial Activity Retention of FN33 AMP (%) Against MRSA Strain 2468 (MRSA strain 2468 [2]; with Triton X-100 1% w/v, 1 h): 81.23 ± 1.04 %
Antibacterial Activity Retention of FN33 AMP (%) Against MRSA Strain 2468 (MRSA strain 2468 [2]; with Triton X-100 1% w/v, 6 h): 81.69 ± 0.38 %
Antibacterial Activity Retention of FN33 AMP (%) Against MRSA Strain 2468 (MRSA strain 2468 [2]; with Triton X-100 1% w/v, 12 h): 81.30 ± 0.72 %
average fluorescence increase vs untreated group (MRSA strain 2468 [3]; 0.25× MIC): 5.87 ± 0.72 fold
average fluorescence increase vs untreated group (MRSA strain 2468 [3]; 0.5× MIC): 7.44 ± 0.77 fold
average fluorescence increase vs untreated group (MRSA strain 2468 [3]; 1× MIC): 7.91 ± 0.48 fold
average fluorescence increase vs untreated group (MRSA strain 2468 [3]; 2× MIC): 8.49 ± 0.25 fold
average fluorescence increase vs untreated group (MRSA strain 2468 [3]; 4× MIC): 9.13 ± 0.46 fold
average increase in fluorescence intensity vs untreated group (S. aureus TISTR 517; 0.25× MIC): 1.88 ± 0.83 fold
average increase in fluorescence intensity vs untreated group (S. aureus TISTR 517; 0.5× MIC): 1.89 ± 0.91 fold
average increase in fluorescence intensity vs untreated group (S. aureus TISTR 517; 1× MIC): 1.98 ± 0.92 fold
average increase in fluorescence intensity vs untreated group (S. aureus TISTR 517; 2× MIC): 3.54 ± 1.64 fold
average increase in fluorescence intensity vs untreated group (S. aureus TISTR 517; 4× MIC): 8.49 ± 4.31 fold
Antibacterial Activity Retention of FN33 AMP (%) Against MRSA Strain 2468 (proteinase K; 1 h): 0.00 ± 0.00 %
Antibacterial Activity Retention of FN33 AMP (%) Against MRSA Strain 2468 (proteinase K; 6 h): 0.00 ± 0.00 %
Antibacterial Activity Retention of FN33 AMP (%) Against MRSA Strain 2468 (proteinase K; 12 h): 0.00 ± 0.00 %
Antibacterial Activity Retention of FN33 AMP (%) Against MRSA Strain 2468 (α-chymotrypsin; 1 h): 0.00 ± 0.00 %
Antibacterial Activity Retention of FN33 AMP (%) Against MRSA Strain 2468 (α-chymotrypsin; 6 h): 0.00 ± 0.00 %
Antibacterial Activity Retention of FN33 AMP (%) Against MRSA Strain 2468 (α-chymotrypsin; 12 h): 0.00 ± 0.00 %
% Inhibition of Albumin Denaturation (egg albumin; 50 µg/mL): 4.85 ± 0.93 *^,† %
% Inhibition of Albumin Denaturation (egg albumin; 100 µg/mL): 17.75 ± 0.97 *^,† %
% Inhibition of Albumin Denaturation (egg albumin; 250 µg/mL): 34.39 ± 1.82 %
% Inhibition of Albumin Denaturation (egg albumin; 500 µg/mL): 57.16 ± 1.06 %
